Consider 17 molecules from patent US7728012B2, “Carboxamide compounds and their use as calpain inhibitors” (Abbott GmbH & Co. KG, priority 2006, dated 2010).

pKi: −log10 of the molar value. Counter-ions that a name gives are not always drawn. Where only a bound is given, the exact number is not on record here.

What is called pKi is the Ki on a negative log10 scale, so that one unit is a factor of ten.

The target of the first assay is T1, recombinant human cathepsin S (Homo sapiens, UniProt P25774).
T1 construct: purchased Calbiochem 219343; host or cells: E. coli
T1 sequence (P25774 115-331): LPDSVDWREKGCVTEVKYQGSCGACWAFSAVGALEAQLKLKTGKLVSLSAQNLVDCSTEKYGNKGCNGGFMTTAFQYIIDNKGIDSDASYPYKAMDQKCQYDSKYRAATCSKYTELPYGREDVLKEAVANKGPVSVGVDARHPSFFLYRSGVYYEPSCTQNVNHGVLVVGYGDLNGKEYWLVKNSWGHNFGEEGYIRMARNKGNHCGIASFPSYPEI
Nature of the assay: Cathepsin S kinetic fluorescence enzyme inhibition assay. The assay is classed as biochemical. To be noted: selectivity ratio versus calpain I. As to the method: (§1) The following solutions and buffers were employed: • HBS (for 40 ml): 800 μl M HEPES; 2.16 ml 100 mM KCl; 4.8 ml 1M NaCl; 3.59 ml 5% glucose; 60 μl μM MgSO4; 400 μl 100 mM Na pyruvate, 28.19 ml water; pH 7.2-7.5. • lysis buffer (for 20 ml): 400 μl M Tris pH 8.2; 2.74 ml 1M NaCl; 520 μl 0.5M EDTA; 2 ml 10% triton X-100; 0.8 ml (=1:25) CompletePlus (1 tablet/2 ml H2O); 200 μl 100 mM Pefabloc; 13.34 ml water, pH 8.2. • TBST (10×) (for 1 l): 100 mM Tris (12.1 g); 1.5M NaCl (87 g); 1% Tween 20 (10 g), adjusted to pH 8. I Enzyme Inhibition In Vitro: • Testing for blockade of the corresponding enzymic activities was carried out by means of kinetic fluorescence assays (excitation 390 nm, emission 460 nm). • Apparent Ki values were calculated from the experimentally determined IC50 values by the Cheng-Prussoff relation assuming a reversible competitive enzyme inhibition. The Km values of the substrates used under the assay conditions indicated above were: 90 μM (Z-Phe-Arg-AMC, cathepsin B), 10 μM (Z-Gly-Pro-Arg-AMC, cathepsin K), 2 μM (Z-Phe-Arg-AMC, cathepsin L), and 30 μM (Z-Val-Val-Arg-AMC, cathepsin S). • The indicated Ki values are averages of the inhibition constants calculated on the basis of 2 to 4 independent dose-effect plots.
(§2) The following assays were used: • 1. Calpain I: • 20 nM calpain-I—isolated from human erythrocytes (Calbiochem #208713), 100 μM Suc-Leu-Tyr-AMC (Bachem #1-1355) as substrate in buffer with 62 mM imidazole, 0.3 mM CaCl2, 0.10% CHAPS, 0.05% BSA, 1 mM DTT at pH 7.3 and room temperature. • 2. Cathepsin B: • 0.25 nM cathepsin B—isolated from human liver (Calbiochem #219362), 100 μM Z-Phe-Arg-AMC (Bachem #I-1160) as substrate 50 mM MES, 2 mM EDTA, 0.05% Brij 35, 2.5 mM L-cysteine, pH 6.0, room temperature. • 3. Cathepsin K: • 3 nM cathepsin K—activated from recombinant human procathepsin K from E. coli (Calbiochem #342001), 10 μM Z-Gly-Pro-Arg-AMC (Biomol #P-142) as substrate in 50 mM MES, 2 mM EDTA, 0.05% Brij 35, 2.5 mM L-cysteine, pH 6.0, room temperature. • 4. Cathepsin L: • 1 nM cathepsin L—isolated from human liver (Calbiochem #219402), 2 μM Z-Phe-Arg-AMC (Bachem #1-1160) as substrate in 50 mM MES, 2 mM EDTA, 0.05% Brij 35, 2.5 mM L-cysteine, pH 6.0, room temperature. • 5. Cathepsin S: • 0.5 nM recombinant human cathepsin S from E. coli (Calbiochem #219343), 20 μM Z-Val-Val-Arg-AMC (Bachem #1-1540) as substrate in 50 mM MES, 2 mM EDTA, 0.05% Brij 35, 2.5 mM L-cysteine, pH 6.0, room temperature. • The results of the in vitro determination are indicated in Table 1. The following abbreviations are used in Table 1: • The “Calpain activity” column, ++ stands for a calpain Ki (Ki(calpain)) of ≦40 nM and + means: 40 nM<Ki(Calpain)≦100 nM. • The “Sel. cat. B” column indicates the Ki(cathepsin B)/Ki(calpain) ratio. In this connection, ++ means a Ki(cathepsin B)/Ki(calpain) ratio of ≧30 and + means 10≦Ki(cathepsin B)/Ki(calpain)<30. • The “Sel. cat. K” column indicates the Ki(cathepsin K)/Ki(calpain) ratio. In this connection, ++ means a Ki(cathepsin K)/Ki(calpain) ratio of ≧30 and + means 10≦Ki(cathepsin K)/Ki(calpain)<30. • The “Sel. cat. L” column indicates the Ki(cathepsin L)/Ki(calpain) ratio. In this connection, ++ means a Ki(cathepsin L)/Ki(calpain) ratio of ≧50 and + means 30≦Ki(cathepsin L)/Ki(calpain)<50. • The “Sel. cat. S” column indicates the Ki(cathepsin S)/Ki(calpain) ratio. In this connection, ++ means a Ki(cathepsin S)/Ki(calpain) ratio of ≧100 and + means 50≦Ki(cathepsin S)/Ki(calpain)<100.
`CCCCC(NC(=O)c1cccnc1-n1ccc(-c2ccccc2)n1)C(=O)C(N)=O` (stereo not drawn) [Example 6, N-{1-[Amino(oxo)acetyl]pentyl}-2-(3-phenyl-1H-pyrazol-1-yl)nicotinamide]: the “Sel cat. S (Ki(cathepsin S)/Ki(calpain) ratio)” value is on record as “+ (50≦Ki(cathepsin S)/Ki(calpain)<100)”.
On to `NC(=O)C(=O)C(Cc1ccccc1)NC(=O)c1cccnc1-n1ccc(-c2ccncc2)n1` (stereo not drawn) [Example 65, N-(3-Amino-1-benzyl-2,3-dioxopropyl)-2-(3-pyridin-4-yl-1H-pyrazol-1-yl)nicotinamide], for which the “Sel cat. S (Ki(cathepsin S)/Ki(calpain) ratio)” value is “++ (Ki(cathepsin S)/Ki(calpain) ratio of ≧100)”.
Same read-out and setting: then `CN(C)Cc1cn(-c2ncccc2C(=O)NC(Cc2ccccc2)C(=O)C(N)=O)nc1-c1cccc(C(F)(F)F)c1` (stereo not drawn) [Example 176, N-[3-Amino-2,3-dioxo-1-(phenylmethyl)propyl]-2-{4-[(dimethylamino)methyl]-3-[3-(trifluoromethyl)phenyl]-1H-pyrazol-1-yl}pyridine-3-carboxamide], with “++ (Ki(cathepsin S)/Ki(calpain) ratio of ≧100)”.

Another assay addresses T2, calpain-I isolated from human erythrocytes (Homo sapiens, UniProt P07384).
T2 construct: calpain-I—isolated from human erythrocytes; purchased Calbiochem 208713; host or cells: human erythrocytes (tissue isolate)
T2 sequence (P07384 1-714): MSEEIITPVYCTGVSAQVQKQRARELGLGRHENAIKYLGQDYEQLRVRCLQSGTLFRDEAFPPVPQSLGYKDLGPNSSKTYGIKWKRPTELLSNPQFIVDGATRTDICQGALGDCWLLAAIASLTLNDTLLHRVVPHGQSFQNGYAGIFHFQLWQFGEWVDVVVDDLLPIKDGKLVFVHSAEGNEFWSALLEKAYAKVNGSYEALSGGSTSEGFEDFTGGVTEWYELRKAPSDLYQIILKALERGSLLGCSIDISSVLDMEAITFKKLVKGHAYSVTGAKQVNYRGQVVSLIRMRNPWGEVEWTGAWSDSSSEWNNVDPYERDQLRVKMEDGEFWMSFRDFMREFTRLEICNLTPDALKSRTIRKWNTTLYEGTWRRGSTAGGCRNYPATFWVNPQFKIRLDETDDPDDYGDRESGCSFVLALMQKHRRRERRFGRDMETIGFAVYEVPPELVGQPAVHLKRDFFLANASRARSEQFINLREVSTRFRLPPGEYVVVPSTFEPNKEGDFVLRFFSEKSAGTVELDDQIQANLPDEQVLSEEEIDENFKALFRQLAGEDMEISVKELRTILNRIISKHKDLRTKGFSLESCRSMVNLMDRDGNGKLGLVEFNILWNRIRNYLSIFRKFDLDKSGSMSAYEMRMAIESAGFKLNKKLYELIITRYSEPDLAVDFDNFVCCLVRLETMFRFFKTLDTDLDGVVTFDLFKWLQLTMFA
T2 sequence (P04632 1-268 partner): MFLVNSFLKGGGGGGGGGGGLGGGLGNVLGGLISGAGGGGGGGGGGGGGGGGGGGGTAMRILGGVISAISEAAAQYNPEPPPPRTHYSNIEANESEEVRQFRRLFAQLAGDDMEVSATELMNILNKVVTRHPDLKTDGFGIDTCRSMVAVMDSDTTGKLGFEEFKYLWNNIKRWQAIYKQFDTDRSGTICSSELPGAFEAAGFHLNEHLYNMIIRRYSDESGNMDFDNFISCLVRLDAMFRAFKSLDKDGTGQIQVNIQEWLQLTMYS
The assay can be described thus: Calpain I kinetic fluorescence enzyme inhibition assay. The assay is classed as biochemical. To be noted: apparent Ki from IC50 by Cheng-Prussoff; average of 2 to 4 dose-effect plots. As to the method:
as §1, §2
`NC(=O)C(=O)C(Cc1ccccc1)NC(=O)c1cccnc1-n1cc(-c2ccccc2)cn1` (stereo not drawn) [Example 4, N-(3-Amino-1-benzyl-2,3-dioxopropyl)-2-(4-phenyl-1H-pyrazol-1-yl)nicotinamide]: the negative logarithm of the Ki (pKi) was at least 7.40.
Still for that read-out and setting: the result for `CCCCC(NC(=O)c1cccnc1-n1ccc(-c2ccccc2)n1)C(=O)C(N)=O` (stereo not drawn) [Example 6, N-{1-[Amino(oxo)acetyl]pentyl}-2-(3-phenyl-1H-pyrazol-1-yl)nicotinamide] reads at least 7.40; that for `CCCCC(NC(=O)c1cccnc1-n1cnc(-c2ccc(Cl)cc2)c1)C(=O)C(N)=O` (stereo not drawn) [Example 10, N-{1-[Amino(oxo)acetyl]pentyl}-2-[4-(4-chlorophenyl)-1H-imidazol-1-yl]nicotinamide], at least 7.40.
On the same count and under the same terms, the result for `CCCCC(NC(=O)c1cccnc1-n1cnc(-c2ccc(OC)cc2)c1)C(=O)C(N)=O` (stereo not drawn) [Example 12, N-{1-[Amino(oxo)acetyl]pentyl}-2-[4-(4-methoxyphenyl)-1H-imidazol-1-yl]nicotinamide] reads at least 7.40; that for `CCN(CC)c1ccc(-c2cn(-c3ncccc3C(=O)NC(Cc3ccccc3)C(=O)C(N)=O)cn2)cc1` (stereo not drawn) [Example 16, N-(3-Amino-1-benzyl-2,3-dioxopropyl)-2-{4-[4-(diethylamino)phenyl]-1H-imidazol-1-yl}nicotinamide hydrochloride], 7.00 to 7.40.
Consider `NC(=O)C(=O)C(Cc1ccccc1)NC(=O)c1cccnc1-n1cnc(-c2ccccc2Cl)c1` (stereo not drawn) [Example 19, N-(3-Amino-1-benzyl-2,3-dioxopropyl)-2-[4-(2-chlorophenyl)-1H-imidazol-1-yl]nicotinamide hydrochloride], for which the negative logarithm of the Ki (pKi) is at least 7.40.
The same measure, in the same setting: then `CCCCC(NC(=O)c1cccnc1-n1cnc(-c2ccccc2Cl)c1)C(=O)C(N)=O` (stereo not drawn) [Example 20, N-{1-[Amino(oxo)acetyl]pentyl}-2-[4-(2-chlorophenyl)-1H-imidazol-1-yl]nicotinamide hydrochloride], with at least 7.40.
On to `CCCCC(NC(=O)c1cccnc1-n1cnc(-c2cccc(Cl)c2)c1)C(=O)C(N)=O` (stereo not drawn) [Example 21, N-{1-[Amino(oxo)acetyl]pentyl}-2-[4-(3-chlorophenyl)-1H-imidazol-1-yl]nicotinamide], for which the negative logarithm of the Ki (pKi) was at least 7.40.
Turning to `NC(=O)C(=O)C(Cc1ccccc1)NC(=O)c1cccnc1-n1cnc(-c2cccc(Cl)c2)c1` (stereo not drawn) [Example 22, N-(3-Amino-1-benzyl-2,3-dioxopropyl)-2-[4-(3-chlorophenyl)-1H-imidazol-1-yl]nicotinamide], the pKi was at least 7.40.
With `NC(=O)C(=O)C(Cc1ccccc1)NC(=O)c1cc(Cl)cnc1-n1cnc(-c2ccccc2)c1` (stereo not drawn) [Example 23, N-(3-Amino-1-benzyl-2,3-dioxopropyl)-5-chloro-2-(4-phenyl-1H-imidazol-1-yl)nicotinamide hydrochloride], the pKi was at least 7.40.
Same read-out and setting: then `CC(C)CC(NC(=O)c1cc(Cl)cnc1-n1cnc(-c2ccccc2)c1)C(=O)C(N)=O` (stereo not drawn) [Example 25, N-{1-[Amino(oxo)acetyl]-3-methylbutyl}-5-chloro-2-(4-phenyl-1H-imidazol-1-yl)nicotinamide], with at least 7.40; and `NC(=O)C(=O)C(Cc1ccccc1)NC(=O)c1cccnc1-n1ncc2ccccc21` (stereo not drawn) [Example 77, N-(3-Amino-1-benzyl-2,3-dioxopropyl)-2-(1H-indazol-1-yl)nicotinamide], with at least 7.40.
On the same count and under the same terms, then `O=C[C@H](Cc1ccccc1)NC(=O)c1cccnc1-n1ccc(-c2ccccc2)n1` [Example 105, N-[(1S)-1-Formyl-2-phenylethyl]-2-(3-phenyl-1H-pyrazol-1-yl)pyridine-3-carboxamide], with at least 7.40.
Still for that read-out and setting: the result for `COc1ccc(CC(NC(=O)c2cccnc2-n2ccc(-c3cccc(C(F)(F)F)c3)n2)C(=O)C(N)=O)cc1` (stereo not drawn) [Example 126, N-(3-Amino-1-{[4-(methyloxy)phenyl]methyl}-2,3-dioxopropyl)-2-{3-[3-(trifluoromethyl)phenyl]-1H-pyrazol-1-yl}pyridine-3-carboxamide] reads at least 7.40.
As for `NC(=O)C(=O)C(Cc1ccccc1)NC(=O)c1cccnc1-n1ccc(-c2ccc3ocnc3c2)n1` (stereo not drawn) [Example 129, N-[3-Amino-2,3-dioxo-1-(phenylmethyl)propyl]-2-[3-(1,3-benzoxazol-5-yl)-1H-pyrazol-1-yl]pyridine-3-carboxamide], the pKi is 7.00 to 7.40.
